Experimental data: the NIST ThermoML archive (doi:10.1016/j.fluid.2005.07.017)

Assay: xn = mol fraction of the nth substance listed
Details: Liquid, Vibrating tube method

c1ccsc1 [thiophene] + O=C=O
Details	mass density [kg/m3]
342.91 K, 11019 kPa, x2 = 0.3818	967.88
342.91 K, 11995 kPa, x2 = 0.3818	969.76
342.91 K, 12980 kPa, x2 = 0.3818	971.64
342.91 K, 14033 kPa, x2 = 0.3818	973.6
342.91 K, 15024 kPa, x2 = 0.3818	975.41
342.91 K, 15980 kPa, x2 = 0.3818	977.13
342.91 K, 17026 kPa, x2 = 0.3818	978.96
342.91 K, 18022 kPa, x2 = 0.3818	980.7
342.91 K, 19019 kPa, x2 = 0.3818	982.41
343.15 K, 101 kPa, x2 = 0	1002.15
352.59 K, 4979 kPa, x2 = 0.199	974.07
352.59 K, 5990 kPa, x2 = 0.199	975.64
352.59 K, 7029 kPa, x2 = 0.199	977.28
352.59 K, 8024 kPa, x2 = 0.199	978.8
352.59 K, 9035 kPa, x2 = 0.199	980.29
352.59 K, 9983 kPa, x2 = 0.199	981.7
352.59 K, 11018 kPa, x2 = 0.199	983.2
352.59 K, 12014 kPa, x2 = 0.199	984.65
352.59 K, 13125 kPa, x2 = 0.199	986.24
352.59 K, 14000 kPa, x2 = 0.199	987.44
352.59 K, 15014 kPa, x2 = 0.199	988.92
352.59 K, 15934 kPa, x2 = 0.199	990.14
352.59 K, 17055 kPa, x2 = 0.199	991.66
352.59 K, 17954 kPa, x2 = 0.199	992.83
352.59 K, 19034 kPa, x2 = 0.199	994.28
352.59 K, 20005 kPa, x2 = 0.199	995.52
352.67 K, 1064 kPa, x2 = 0	992.39
352.67 K, 2003 kPa, x2 = 0	993.54
352.67 K, 3024 kPa, x2 = 0	994.79
352.67 K, 4003 kPa, x2 = 0	995.98
352.67 K, 5048 kPa, x2 = 0	997.22
352.67 K, 6013 kPa, x2 = 0	998.36
352.67 K, 7013 kPa, x2 = 0	999.51
352.67 K, 8050 kPa, x2 = 0	1000.73
352.67 K, 9018 kPa, x2 = 0	1001.82
352.67 K, 10003 kPa, x2 = 0	1002.93
352.67 K, 11003 kPa, x2 = 0	1004.07
352.67 K, 12004 kPa, x2 = 0	1005.16
352.67 K, 12998 kPa, x2 = 0	1006.25
352.67 K, 14005 kPa, x2 = 0	1007.34
352.67 K, 15038 kPa, x2 = 0	1008.46
352.67 K, 16006 kPa, x2 = 0	1009.49
352.67 K, 17027 kPa, x2 = 0	1010.58
352.67 K, 18001 kPa, x2 = 0	1011.6
352.67 K, 19031 kPa, x2 = 0	1012.65
352.67 K, 20017 kPa, x2 = 0	1013.74
352.85 K, 7014 kPa, x2 = 0.3818	941.65
352.85 K, 8124 kPa, x2 = 0.3818	944.24
352.85 K, 9071 kPa, x2 = 0.3818	946.38
352.85 K, 10020 kPa, x2 = 0.3818	948.55
352.85 K, 11000 kPa, x2 = 0.3818	950.66
352.85 K, 12010 kPa, x2 = 0.3818	952.84
352.85 K, 13005 kPa, x2 = 0.3818	954.93
352.85 K, 14021 kPa, x2 = 0.3818	956.99
352.85 K, 15021 kPa, x2 = 0.3818	958.98
352.85 K, 16002 kPa, x2 = 0.3818	960.92
352.85 K, 17007 kPa, x2 = 0.3818	962.89
352.85 K, 18002 kPa, x2 = 0.3818	964.77
352.85 K, 19018 kPa, x2 = 0.3818	966.66
353.15 K, 101 kPa, x2 = 0	989.76
362.38 K, 5067 kPa, x2 = 0.199	959.54
362.38 K, 6020 kPa, x2 = 0.199	961.18
362.38 K, 7006 kPa, x2 = 0.199	962.87
362.38 K, 8052 kPa, x2 = 0.199	964.61
362.38 K, 9004 kPa, x2 = 0.199	966.16
362.38 K, 9993 kPa, x2 = 0.199	967.76
362.38 K, 11055 kPa, x2 = 0.199	969.42
362.38 K, 12043 kPa, x2 = 0.199	970.93
362.38 K, 13005 kPa, x2 = 0.199	972.44
362.38 K, 14008 kPa, x2 = 0.199	973.98
362.38 K, 14980 kPa, x2 = 0.199	975.41
362.38 K, 16011 kPa, x2 = 0.199	976.94
362.38 K, 17005 kPa, x2 = 0.199	978.39
362.38 K, 18009 kPa, x2 = 0.199	979.82
362.38 K, 19011 kPa, x2 = 0.199	981.22
362.38 K, 20040 kPa, x2 = 0.199	982.7
362.51 K, 1007 kPa, x2 = 0	979.8
362.51 K, 2022 kPa, x2 = 0	981.13
362.51 K, 3029 kPa, x2 = 0	982.49
362.51 K, 4004 kPa, x2 = 0	983.74
362.51 K, 5006 kPa, x2 = 0	985.01
362.51 K, 6003 kPa, x2 = 0	986.27
362.51 K, 6999 kPa, x2 = 0	987.5
362.51 K, 7993 kPa, x2 = 0	988.73
362.51 K, 9007 kPa, x2 = 0	989.99
362.51 K, 9993 kPa, x2 = 0	991.16
362.51 K, 10997 kPa, x2 = 0	992.36
362.51 K, 11993 kPa, x2 = 0	993.56
362.51 K, 12838 kPa, x2 = 0	994.53
362.51 K, 14038 kPa, x2 = 0	995.94
362.51 K, 15044 kPa, x2 = 0	997.1
362.51 K, 16029 kPa, x2 = 0	998.18
362.51 K, 17006 kPa, x2 = 0	999.27
362.51 K, 18016 kPa, x2 = 0	1000.4
362.51 K, 18987 kPa, x2 = 0	1001.47
362.73 K, 8081 kPa, x2 = 0.3818	925.8
362.73 K, 9009 kPa, x2 = 0.3818	928.21
362.73 K, 10010 kPa, x2 = 0.3818	930.72
362.73 K, 11009 kPa, x2 = 0.3818	933.15
362.73 K, 11996 kPa, x2 = 0.3818	935.49
362.73 K, 13008 kPa, x2 = 0.3818	937.87
362.73 K, 14001 kPa, x2 = 0.3818	940.11
362.73 K, 15006 kPa, x2 = 0.3818	942.32
362.73 K, 16002 kPa, x2 = 0.3818	944.47
362.73 K, 17016 kPa, x2 = 0.3818	946.62
362.73 K, 18023 kPa, x2 = 0.3818	948.72
362.73 K, 19014 kPa, x2 = 0.3818	950.73
